These results are taken from patent US10758466B2, “Powder-based cosmetic compositions containing pelargonic acid esters” (Novamont S.p.A., priority 2015, dated 2020).

Data set [1] is described as follows: UV filters dispersion: dispersibility of solid UV filter in ester oils. Details: key: D=homogeneous dispersion; S=sediment deposit. The note with it: 25° C.; for Filters dispersion t0 1%: 1% TiO2, storage 0 hours; for Filters dispersion t24 1%: 1% TiO2, storage 24 hours; for Filters dispersion t0 10%: 10% TiO2, storage 0 hours; for Filters dispersion t24 10%: 10% TiO2, storage 24 hours. The data set is classed as physicochemical. As for the experimental part:
The dispersibility of a solid UV filter in different ester oils was tested using Titania (TiO2, commercially available as Titanio Biossido Anatasio from A.C.E.F.). Various ratios of solute/solvent (1% and 10% TiO2) were prepared under stiffing at 70° C. for 30 minutes. The dispersions were then observed after a storage period of 0 hours (t0) and 24 hours (t24) at ambient temperature (25° C.) to check for the formation of any sediment deposit. Results for each ester are shown in the table below (D=homogeneous dispersion; S=sediment deposit).

Data set [2] in a line: Pigments dispersion: wet point and flow point of ester oil. The format is physicochemical. The note with it: for Fp: amount of ester oil needed to reach the flow point; for Fp / Wp: grams per 100 g of pigment; for Wp: amount of ester oil needed to reach the wet point. The text has this:
Black Iron Oxide particles (CI77499, commercially available as YPC335200 from Yipin) were dispersed in each of the ester oils of the present invention and in ester oil commonly used as cosmetic ingredients. Each sample of powder particles was wetted by the dropwise addition of one ester oil and then vigorously blended using a spatula until the wet point and the flow point were reached.
The wet point is defined as the minimum volume of dispersant solution to produce a soft coherent mass; the further minimum addition of dispersant solution to produce flow or falling off of the homogeneous mass from the vertical blade of a horizontally held spatula determines the flow point.
The amounts of dispersant solution (i.e. ester oil) needed to reach the wet point (Wp) and the flow point (Fp) were recorded and reported in the table below, expressed in grams per 100 g of pigment.

Molecules are shown by their SMILES.

Consider `CC(C)CCCCCCOC(=O)CCCCCC(C)C` [Isononyl Isononanoate, reference compound], for which, in data set [1], the “Filters dispersion t0 1%” value is recorded as “D”, the “Filters dispersion t24 1%” value was “S”, the “Filters dispersion t0 10%” value was “D” and the “Filters dispersion t24 10%” value is listed as “S”. Besides, in data set [2], the “Fp” value is 145.00 g and the “Wp” value is given as 50.00 g.
With `CCCCCCCCC(=O)OCC(COC(=O)CCCCCCCC)OC(=O)CCCCCCCC` [Glycerol tripelargonate], in data set [1], the “Filters dispersion t0 1%” value is given as “D”, the “Filters dispersion t24 1%” value is reported as “D”, the “Filters dispersion t0 10%” value is given as “D” and the “Filters dispersion t24 10%” value was “S/D”. Further, in data set [2], the “Fp” value is recorded as 100.00 g and the “Wp” value is recorded as 60.00 g. The “less solvent required on the final composition” value in data set [2] (from Fp close to Wp, compared with commonly used ester oils) is listed as “about 30%”.
`CCCCCCCCC(=O)OCC(C)(C)COC(=O)CCCCCCCC` [Neopentyl glycol dipelargonate]: in data set [1], the “Filters dispersion t0 1%” value is “D”, the “Filters dispersion t24 1%” value is “S/D”, the “Filters dispersion t0 10%” value is on record as “D” and the “Filters dispersion t24 10%” value is “S/D”. In addition, in data set [2], the “Fp” value came to 166.00 g and the “Wp” value came to 61.00 g.
Turning to `CCCCCCCCC(=O)OCC(COC(=O)CCCCCCCC)(COC(=O)CCCCCCCC)COC(=O)CCCCCCCC` [Pentaerythritol tetrapelargonate], in data set [1], the “Filters dispersion t0 1%” value is listed as “D”, the “Filters dispersion t24 1%” value was “D”, the “Filters dispersion t0 10%” value is given as “D” and the “Filters dispersion t24 10%” value is reported as “D”. In addition, in data set [2], the “Fp” value was 132.00 g and the “Wp” value was 62.00 g.
